In the supplement of paper PMC5908809:

Key:
[1] = test system: KAI3 (IL-2 2.5 ng/mL); assay: drug sensitivity score (DSS) (DSS units); higher = more sensitive; extreme values may be limits of the assay; settings: 72 h
[2] = test system: normal primary NK cells, pool 1 (3 donors), resting (IL-2 0 ng/mL); assay: as above; settings: 72 h
[3] = test system: KHYG-1 (IL-2 2.5 ng/mL); assay: as above; settings: 72 h
[4] = test system: YT (IL-2 2.5 ng/mL); assay: as above; settings: 72 h
[5] = test system: DERL-7 (IL-2 2.5 ng/mL); assay: as above; settings: 72 h
[6] = test system: NK-92 (IL-2 2.5 ng/mL); assay: as above; settings: 72 h
[7] = test system: normal primary NK cells, pool 3 (3 donors) (IL-2 2.5 ng/mL); assay: as above; settings: 72 h
[8] = test system: normal primary NK cells, pool 2 (3 donors) (IL-2 2.5 ng/mL); assay: as above; settings: 72 h
[9] = test system: normal primary NK cells, pool 1 (3 donors) (IL-2 2.5 ng/mL); assay: as above; settings: 72 h
[10] = test system: NK-YS (IL-2 2.5 ng/mL); assay: as above; settings: 72 h
[11] = test system: NKL (IL-2 2.5 ng/mL); assay: as above; settings: 72 h
[12] = test system: SNK-6 (IL-2 2.5 ng/mL); assay: as above; settings: 72 h
[13] = test system: IMC-1 (IL-2 20 ng/mL); assay: as above; settings: 72 h
[14] = test system: KAI3 (IL-2 2.5 ng/mL); assay: percent inhibition of viability; higher = more inhibition; settings: 72 h
[15] = test system: normal primary NK cells, pool 1 (3 donors), resting (IL-2 0 ng/mL); assay: as above; settings: 72 h
[16] = test system: KHYG-1 (IL-2 2.5 ng/mL); assay: as above; settings: 72 h
[17] = test system: YT (IL-2 2.5 ng/mL); assay: as above; settings: 72 h
[18] = test system: DERL-7 (IL-2 2.5 ng/mL); assay: as above; settings: 72 h
[19] = test system: NK-92 (IL-2 2.5 ng/mL); assay: as above; settings: 72 h
[20] = test system: normal primary NK cells, pool 3 (3 donors) (IL-2 2.5 ng/mL); assay: as above; settings: 72 h
[21] = test system: normal primary NK cells, pool 2 (3 donors) (IL-2 2.5 ng/mL); assay: as above; settings: 72 h
[22] = test system: normal primary NK cells, pool 1 (3 donors) (IL-2 2.5 ng/mL); assay: as above; settings: 72 h
[23] = test system: NK-YS (IL-2 2.5 ng/mL); assay: as above; settings: 72 h
[24] = test system: NKL (IL-2 2.5 ng/mL); assay: as above; settings: 72 h
[25] = test system: SNK-6 (IL-2 2.5 ng/mL); assay: as above; settings: 72 h
[26] = test system: IMC-1 (IL-2 20 ng/mL); assay: as above; settings: 72 h
[27] = test system: normal NK cells expanded with K562-aAPC; assay: as above; settings: 72 h, IL-2 2.5 ng/mL
Procedure: (§1)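 Drug sensitivity and resistance testing on K562-aAPC-expanded normal NK cells: 5 concentrations (10-fold steps over a 10,000-fold range), 72 h at 37 °C, viability by CellTiter-Glo normalised to DMSO and benzethonium chloride controls; DSS from the fitted curve.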

[28] = test system: normal NK cells expanded with K562-aAPC; assay: drug sensitivity score (DSS) (DSS units); higher = more sensitive; extreme values may be limits of the assay; settings: 72 h; IL-2 2.5 ng/mL
Procedure: as §1

O=C(c1cc(Cc2n[nH]c(=O)c3ccccc23)ccc1F)N1CCN(C(=O)C2CC2)CC1 [Olaparib] (max concentration tested 10000 nM)
Settings | drug sensitivity score
[1] | 7.15
[2] | 0.22
[3] | 5.78
[4] | 1.37
[5] | 1.54
[6] | 7.35
[7] | 0.4
[8] | 0.48
[9] | 0
[10] | 8.28
[11] | 14.5
[12] | 8.04
[13] | 4.75
[28] | 3.25

percent inhibition of viability [%]
Settings | 1 nM | 10 nM | 100 nM | 1000 nM | 10000 nM
[14] | 0.33 | 3.77 | 9.9 | 28.6 | 72.2
[15] | -10.9 | 1.92 | -9.9 | -1.32 | 15.6
[16] | -5.18 | -5.25 | 0.38 | 10.5 | 72.6
[17] | 4.35 | 1.35 | 5.37 | 3.91 | 22.8
[18] | -1.68 | 4.77 | -8.94 | 1.1 | 31.5
[19] | 4.94 | 9.54 | 8.93 | 21.5 | 79.2
[20] | -7.91 | -1.82 | -4.22 | 3.8 | 13.5
[21] | -7.93 | -9.67 | -11 | 2.31 | 15.4
[22] | 3.22 | 7.12 | -3.15 | 3.31 | 8.24
[23] | -6.43 | -6.57 | 3.49 | 20.7 | 90.7
[24] | 0.33 | 9.8 | 27.9 | 57.2 | 80.5
[25] | 1.96 | -1.75 | -10.2 | 19.4 | 89.5
[26] | 2.29 | 1.77 | 7.69 | 13.7 | 53.5
[27] | 5.19 | 4.79 | 5.47 | 7.88 | 39.6

Cc1cc(Nc2ncc(Cl)c(Nc3ccccc3S(=O)(=O)C(C)C)n2)c(OC(C)C)cc1C1CCNCC1 [Ceritinib] (max concentration tested 2500 nM)
Settings | drug sensitivity score
[1] | 0
[2] | 5.8
[3] | 0
[4] | 0
[5] | 0.92
[6] | 0
[7] | 0
[8] | 0.23
[9] | 3.33
[10] | 0.89
[11] | 0.89
[12] | 0
[13] | 0.89
[28] | 0.89

percent inhibition of viability [%]
Settings | 0.25 nM | 2.5 nM | 25 nM | 250 nM | 2500 nM
[14] | 0.47 | 4.56 | -2.83 | 3.89 | 7.4
[15] | -7.32 | -13.8 | 7.94 | 12 | 69
[16] | 0.86 | -4.67 | -2.14 | -5.38 | -4.91
[17] | 2.57 | -0.77 | -0.72 | -2.37 | 3.15
[18] | 3.63 | 5.92 | -4.52 | 1.56 | 21.8
[19] | 7.74 | -3.66 | -9.06 | -14.7 | -17.8
[20] | -5.64 | -4.98 | -6.68 | -5.81 | 0.68
[21] | -8.08 | -2.52 | -12.5 | -0.57 | 15.4
[22] | -2.74 | -3.9 | 0.34 | 4.28 | 50.2
[23] | -0.73 | -3.11 | -3.16 | -7.84 | -1.32
[24] | -3.75 | -12.6 | -15.7 | -9.51 | -1.79
[25] | 10.1 | 11.8 | 6.18 | -2.76 | -12.8
[26] | -2.25 | -2.84 | -3.12 | -7.73 | -4.42
[27] | -2.81 | -5.61 | -7.59 | -0.13 | -2.11
